The test system of the assay is ApoE. The assay can be described thus: apoE secretion by PMA-differentiated THP-1 cells, apoE quantified by ELISA. Format: cell-based, human. The note with it: 3 days; for percent change in apoE secretion versus control at 25 µM / percent change in apoE secretion versus control at 50 µM / percent change in apoE secretion versus control at 100 µM: Homo sapiens, THP-1, 72 h. From the text:
The bisphosphonate compounds of the invention can modulate (increase or decrease) apoE levels in plasma and in tissues. The activities of the compounds can be determined in an in vitro cell assay comprising determining the modulatory effect of the test compound on the secretion of apoE by an apoE secreting cell line (e.g., a monocyte-macrophage cell line such as the THP-1 cell line, a liver derived cell line such as the HepG2 cell line, an intestinal derived cell line such as the CaCo2 cell line or a brain derived cell line such as the astrocytoma CCF-STTG1 cell line).
THP-1 cell line (ATCC TIB-202) are cultured in RPMI 1640 (with 2 mM of L-glutamine and 2 g/l of glucose, Invitrogen) supplemented with 2 g/l of sodium hydrogen carbonate (Fluka), 10 U/ml of penicillin, 10 μg/ml of streptomycin (Penicillin-Streptomycin, Invitrogen), 20 μM of 2-mercaptoethanol (Fluka) and 10% FCS (Amimed). Cells are incubated at 37° C. and 5% CO2.
Cells are seeded in 24 well tissue culture plates (Falcon), 2×10^5 cells in 500 μl of culture medium per well or 6 well plates for RT-PCR purpose, 1×10^6 cells in 2.5 ml of medium. PMA (Phorbol 12-myristate 13-acetate, Alexis), (stock in DMSO (Fluka) at 1 mg/ml) and other compounds are diluted in ethanol and added to the cells at an ethanol final concentration not exceeding 1%. Same volume of ethanol is added in controls. Plates are incubated for 3 days at 37° C. and 5% CO2 to allow cell differentiation and apoE secretion.
Medium contained in the wells is harvested and centrifuged 5 min at 1200 rpm. Supernatants are store at −20° C. until apoE quantification. The cell pellets are resuspended in PBS and counted with a ZI Coulter Counter. After a wash with PBS, adherent cells in the well bottoms are detached with trypsin-EDTA solution 10× (Invitrogen) diluted in PBS. The reaction is stopped with the addition of culture medium and the detached cells are counted.
ApoE was quantified by ELISA. 96 well plates (Costar) are coated with 5% of gelatine (from porcine skin, Fluka) in carbonate-bicarbonate buffer (Sigma) for 1 hour at 37° C. After removing the coating solution, 100 μl of THP-1 supernatant are added per well, diluted 5 times in buffer (PBS, 1% Top-Block (Juro), 0.1% Tween 20 (Fluka)). The incubation last 1 hour at 37° C., then the wells are washed 3 times with 200 μl of buffer. Plates are incubated for 1 hour at 37° C. with continuous stirring with the primary antibody (goat anti-human apoE IgG, Calbiochem) at a 10000-time dilution in buffer, 100 μl per well. After 3 washes, plates are incubated with the secondary antibody (rabbit anti-goat-IgG peroxidase conjugated, Sigma) diluted 5000 times, 100 μl per well, at 37° C. with shaking. Then the wells are washed 5 more times and the detection is achieved by adding 100 μl per well of o-phenylenediamine dihydrochloride (Sigma) and incubated for 15-20 minutes with shaking at room temperature. When the appropriated colour is reached, the reaction is stopped by adding 50 μl per well of 3 M sulfuric acid (Fluka) with shaking for 1 minute at room temperature. The absorbance is read at 492 nm versus 620 nm with a microplate photometer (Anthos Reader 2001).
For orientation: An ELISA detects its analyte on a solid surface through an enzyme-linked reagent.

Take `CCOP(=O)(OCC)C(c1ccc(OC/C=C(\C)CC/C=C(\C)CCC=C(C)C)cc1)P(=O)(OCC)OCC` [Tetraethyl 1-[4-(trans, trans-3,7,11-trimethyl-dodeca-2,6,10-trienyloxy)-phenyl]-methylidene-1,1-bisphosphonate]: the “% ApoE Change” value by setting is: (compound 2.5 μM, 1.25 nM PMA) 14%; (compound 2.5 μM, 2.5 nM PMA) 27%; (compound 5.0 μM, 1.25 nM PMA) 46%; (compound 5.0 μM, 2.5 nM PMA) 47%; (compound 10 μM, 1.25 nM PMA) 31%; (compound 10 μM, 2.5 nM PMA) 40%.
For `CCOP(=O)(OCC)C(c1ccc(OCCCc2cccnc2)cc1)P(=O)(OCC)OCC` [Tetraethyl 1-[4-(3-pyridin-3-yl-propoxy)-phenyl]-methylidene-1,1-bisphosphonate], the “% ApoE Change” value (compound 25 μM, 1.25 nM PMA) is 63%; the “% ApoE Change” value (compound 25 μM, 2.5 nM PMA) was 136%; the “% ApoE Change” value (compound 50 μM, 1.25 nM PMA) was determined as 103%; the “% ApoE Change” value (compound 50 μM, 2.5 nM PMA) worked out at 188%; the “% ApoE Change” value (compound 100 μM, 1.25 nM PMA) turned out to be 337%; the “% ApoE Change” value (compound 100 μM, 2.5 nM PMA) is 331%.
As to `CCOP(=O)(OCC)C(c1ccc(OCCN2CCOCC2)cc1)P(=O)(OCC)OCC` [Tetraethyl 1-[4-(2-N-morpholino-ethoxy)-phenyl]-methylidene-1,1-bisphosphonate], the “% ApoE Change” value reads like this: (compound 25 μM, 1.25 nM PMA) −17%; (compound 25 μM, 2.5 nM PMA) −20%; (compound 50 μM, 1.25 nM PMA) −8%; (compound 50 μM, 2.5 nM PMA) −27%; (compound 100 μM, 1.25 nM PMA) 43%; (compound 100 μM, 2.5 nM PMA) −3%.
With `CCOP(=O)(OCC)C(c1ccc(OCCN2C(=O)CCC2=O)cc1)P(=O)(OCC)OCC` [Tetraethyl 1-[4-(2-N-succinimido-ethoxy)-phenyl]-methylidene-1,1-bisphosphonate], the “% ApoE Change” value is −51% (compound 25 μM, 1.25 nM PMA); 30% (compound 25 μM, 2.5 nM PMA); 53% (compound 50 μM, 1.25 nM PMA); 70% (compound 50 μM, 2.5 nM PMA); 123% (compound 100 μM, 1.25 nM PMA); 132% (compound 100 μM, 2.5 nM PMA).
Consider `CCOP(=O)(CC(c1ccc(OCCN(C)c2ccccn2)cc1)P(=O)(OCC)OCC)OCC` (stereo not drawn) [Tetraethyl 1-{4-[2-(methyl-pyridin-2-yl-amino)ethoxy]-phenyl}-ethylidene-1,2-bisphosphonate], for which the percent change in apoE secretion versus control at 25 µM reads like this: (compound 25 μM, 1.25 nM PMA) 77%; (compound 25 μM, 2.5 nM PMA) 110%. This compound registered a percent change in apoE secretion versus control at 50 µM (compound 50 μM, 1.25 nM PMA) of 202% and a percent change in apoE secretion versus control at 50 µM (compound 50 μM, 2.5 nM PMA) of 124%. In addition, the percent change in apoE secretion versus control at 100 µM runs as follows: (compound 100 μM, 1.25 nM PMA) 569%; (compound 100 μM, 2.5 nM PMA) 206%.

The values are drawn from US20060205692A1, “1,1-and 1,2-Bisphosphonates as apoliprotein e modulators” (priority 2002, published 2006).
